In patent publication US10457709B2, “Antimicrobial peptides, their variants and uses” (priority 2015, dated 2019):
Where two headings read alike, the source gives them in different places. Square brackets hold non-standard residues; d marks the D form. Peptide text beside a SMILES is read from it.

Key:
[1] = system: Acinetobacter baumannii clinical strains; type: cell-based; design: Minimum inhibitory concentration: unit: μg/ml; conditions: microdilution, Muller Hinton broth-cation adjusted, 0.02% BSA, 0.2% acetic acid
Method in brief: (§1)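 MIC recorded as the lowest peptide level, within 0.125–128 μg/ml, that left no visible growth after 20–24 h at 37° C. Inoculum was 5.0×10^5 cfu/ml of clinical isolates. Medium was potato dextrose broth for yeasts and Mueller Hinton broth for bacteria, in a broth microdilution format.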

[2] = system: Enterobacter cloacae clinical strains; type: cell-based; design: Minimum inhibitory concentration: unit: μg/ml; conditions: microdilution, Muller Hinton broth-cation adjusted, 0.02% BSA, 0.2% acetic acid
Method in brief: as §1

[3] = system: Proteus mirabilis clinical strains; type: cell-based; design: Minimum inhibitory concentration: unit: μg/ml; conditions: microdilution, Muller Hinton broth-cation adjusted, 0.02% BSA, 0.2% acetic acid
Method in brief: as §1

[4] = system: Serratia marcescens clinical strains; type: cell-based; design: Minimum inhibitory concentration: unit: μg/ml; conditions: microdilution, Muller Hinton broth-cation adjusted, 0.02% BSA, 0.2% acetic acid
Method in brief: as §1

[5] = system: Staphylococcus aureus clinical strains; type: cell-based; design: Minimum inhibitory concentration: unit: μg/ml; conditions: microdilution, Muller Hinton broth-cation adjusted, 0.02% BSA, 0.2% acetic acid
Method in brief: as §1

[6] = system: Streptococcus pneumoniae clinical strains; type: cell-based; design: Minimum inhibitory concentration: unit: μg/ml; conditions: microdilution, Muller Hinton broth-cation adjusted, 0.02% BSA, 0.2% acetic acid
Method in brief: as §1

[7] = system: Candida albicans clinical strains; assay: MIC, clinical yeast strains; type: cell-based; design: unit: μg/ml
Method in brief: as §1

[8] = system: C. glabrata clinical strains; assay: MIC, clinical yeast strains; type: cell-based, Candida glabrata; design: unit: µg/ml
Method in brief: as §1

[9] = system: C. parapsilosis clinical strains; assay: MIC, clinical yeast strains; type: cell-based, Candida parapsilosis; design: unit: µg/ml
Method in brief: as §1

[10] = system: C. quillermondiae clinical strains; assay: MIC, clinical yeast strains; type: cell-based, Candida quillermondiae; design: unit: μg/ml; conditions: C. quillermondiae clinical yeast strain 1
Method in brief: as §1

[11] = system: Escherichia coli clinical strains; type: cell-based; conditions: microdilution, Muller Hinton broth-cation adjusted, 0.02% BSA, 0.2% acetic acid
Method in brief: as §1

[12] = system: Klebsiella pneumoniae clinical strains; type: cell-based; conditions: microdilution, Muller Hinton broth-cation adjusted, 0.02% BSA, 0.2% acetic acid
Method in brief: as §1

[13] = system: Pseudomonas aeruginosa clinical strains; type: cell-based; conditions: microdilution, Muller Hinton broth-cation adjusted, 0.02% BSA, 0.2% acetic acid
Method in brief: as §1

[14] = system: Acinetobacter johnsonii clinical strains; type: cell-based; conditions: Acinetobacter johnsonii clinical strain 1; microdilution, Muller Hinton broth-cation adjusted, 0.02% BSA, 0.2% acetic acid
Method in brief: as §1

[15] = Acinetobacter baumannii clinical strain 1
[16] = Acinetobacter baumannii clinical strain 2
[17] = Acinetobacter baumannii clinical strain 3
[18] = Acinetobacter baumannii clinical strain 4
[19] = Acinetobacter baumannii clinical strain 5
[20] = Enterobacter cloacae clinical strain 1
[21] = Enterobacter cloacae clinical strain 2
[22] = Enterobacter cloacae clinical strain 3
[23] = Enterobacter cloacae clinical strain 4
[24] = Enterobacter cloacae clinical strain 5
[25] = Proteus mirabilis clinical strain 1
[26] = Proteus mirabilis clinical strain 2
[27] = Proteus mirabilis clinical strain 3
[28] = Proteus mirabilis clinical strain 4
[29] = Proteus mirabilis clinical strain 5
[30] = Serratia marcescens clinical strain 1
[31] = Serratia marcescens clinical strain 2
[32] = Serratia marcescens clinical strain 3
[33] = Serratia marcescens clinical strain 4
[34] = Serratia marcescens clinical strain 5
[35] = Staphylococcus aureus clinical strain 1
[36] = Staphylococcus aureus clinical strain 2
[37] = Staphylococcus aureus clinical strain 3
[38] = Staphylococcus aureus clinical strain 4
[39] = Staphylococcus aureus clinical strain 5
[40] = Streptococcus pneumoniae clinical strain 1
[41] = Streptococcus pneumoniae clinical strain 2
[42] = Streptococcus pneumoniae clinical strain 3
[43] = Streptococcus pneumoniae clinical strain 4
[44] = Streptococcus pneumoniae clinical strain 5
[45] = Escherichia coli clinical strain 1
[46] = Escherichia coli clinical strain 2
[47] = Escherichia coli clinical strain 3
[48] = Escherichia coli clinical strain 4
[49] = Escherichia coli clinical strain 5
[50] = Klebsiella pneumoniae clinical strain 1
[51] = Klebsiella pneumoniae clinical strain 2
[52] = Klebsiella pneumoniae clinical strain 3
[53] = Klebsiella pneumoniae clinical strain 4
[54] = Klebsiella pneumoniae clinical strain 5
[55] = Pseudomonas aeruginosa clinical strain 1
[56] = Pseudomonas aeruginosa clinical strain 2
[57] = Pseudomonas aeruginosa clinical strain 3
[58] = Pseudomonas aeruginosa clinical strain 4
[59] = Pseudomonas aeruginosa clinical strain 5

Compound: CC[C@@H](C)[C@@H](NC(=O)[C@@H](CC(C)C)NC(=O)[C@@H](CCCNC(=N)N)NC(=O)[C@H](N)CCCNC(=N)N)C(=O)N[C@H](Cc1c[nH]c2ccccc12)C(=O)N[C@H](CCCNC(=N)N)C(=O)N[C@H](CCCNC(=N)N)C(=O)N[C@H](Cc1ccccc1)C(=O)N[C@H](CCCCN)C(=O)N[C@H](Cc1c[nH]c2ccccc12)C(=O)N[C@H](CC(C)C)C(=O)N[C@H](CCCNC(=N)N)C(=O)O [Chain204D] (H-[dR][dR][dL][dI][dW][dR][dR][dF][dK][dW][dL][dR]-OH)
- Minimum inhibitory concentration [1, 15]: 4
- Minimum inhibitory concentration [1, 16]: 4
- Minimum inhibitory concentration [1, 17]: 4
- Minimum inhibitory concentration [1, 18]: 4
- Minimum inhibitory concentration [1, 19]: 4
- Minimum inhibitory concentration [2, 20]: 4
- Minimum inhibitory concentration [2, 21]: 8
- Minimum inhibitory concentration [2, 22]: 4
- Minimum inhibitory concentration [2, 23]: 8
- Minimum inhibitory concentration [2, 24]: 2
- Minimum inhibitory concentration [3, 25]: >128
- Minimum inhibitory concentration [3, 26]: 32
- Minimum inhibitory concentration [3, 27]: 64
- Minimum inhibitory concentration [3, 28]: >128
- Minimum inhibitory concentration [3, 29]: >128
- Minimum inhibitory concentration [4, 30]: >128
- Minimum inhibitory concentration [4, 31]: >128
- Minimum inhibitory concentration [4, 32]: 128
- Minimum inhibitory concentration [4, 33]: >128
- Minimum inhibitory concentration [4, 34]: >128
- Minimum inhibitory concentration [5, 35]: 1
- Minimum inhibitory concentration [5, 36]: 2
- Minimum inhibitory concentration [5, 37]: 2
- Minimum inhibitory concentration [5, 38]: 1
- Minimum inhibitory concentration [5, 39]: 1
- Minimum inhibitory concentration [6, 40]: 4
- Minimum inhibitory concentration [6, 41]: 4
- Minimum inhibitory concentration [6, 42]: 4
- Minimum inhibitory concentration [6, 43]: 4
- Minimum inhibitory concentration [6, 44]: 4
- Minimum inhibitory concentration ([7]; Candida albicans clinical yeast strain 1): 8
- Minimum inhibitory concentration ([7]; Candida albicans clinical yeast strain 2): 8
- Minimum inhibitory concentration ([7]; Candida albicans clinical yeast strain 3): 8
- Minimum inhibitory concentration ([7]; Candida albicans clinical yeast strain 4): 8
- Minimum inhibitory concentration ([7]; Candida albicans clinical yeast strain 5): 8
- Minimum inhibitory concentration ([8]; C. glabrata clinical yeast strain 1): 4
- Minimum inhibitory concentration ([8]; C. glabrata clinical yeast strain 2): 8
- Minimum inhibitory concentration ([8]; C. glabrata clinical yeast strain 3): 32
- Minimum inhibitory concentration ([8]; C. glabrata clinical yeast strain 4): 32
- Minimum inhibitory concentration ([9]; C. parapsilosis clinical yeast strain 1): 4
- Minimum inhibitory concentration ([9]; C. parapsilosis clinical yeast strain 2): 4
- Minimum inhibitory concentration ([9]; C. parapsilosis clinical yeast strain 3): 8
- Minimum inhibitory concentration ([9]; C. parapsilosis clinical yeast strain 4): 8
- Minimum inhibitory concentration [10]: 4
- Minimum inhibitory concentration [11, 45]: 8
- Minimum inhibitory concentration [11, 46]: 1
- Minimum inhibitory concentration [11, 47]: 1
- Minimum inhibitory concentration [11, 48]: 1
- Minimum inhibitory concentration [11, 49]: 1
- Minimum inhibitory concentration [12, 50]: 8
- Minimum inhibitory concentration [12, 51]: 4
- Minimum inhibitory concentration [12, 52]: 16
- Minimum inhibitory concentration [12, 53]: 4
- Minimum inhibitory concentration [12, 54]: 2
- Minimum inhibitory concentration [13, 55]: 4
- Minimum inhibitory concentration [13, 56]: 16
- Minimum inhibitory concentration [13, 57]: 8
- Minimum inhibitory concentration [13, 58]: 8
- Minimum inhibitory concentration [13, 59]: 4

Compound: Gentamicin [reference compound]
- Minimum inhibitory concentration [1, 15]: 0.5
- Minimum inhibitory concentration [1, 16]: 0.25
- Minimum inhibitory concentration [1, 17]: 0.5
- Minimum inhibitory concentration [1, 18]: 0.5
- Minimum inhibitory concentration [1, 19]: 0.25
- Minimum inhibitory concentration [2, 20]: 0.25
- Minimum inhibitory concentration [2, 21]: 0.25
- Minimum inhibitory concentration [2, 22]: 0.25
- Minimum inhibitory concentration [2, 23]: 0.25
- Minimum inhibitory concentration [2, 24]: 0.25
- Minimum inhibitory concentration [3, 25]: 2
- Minimum inhibitory concentration [3, 26]: 2
- Minimum inhibitory concentration [3, 27]: >128
- Minimum inhibitory concentration [3, 28]: 8
- Minimum inhibitory concentration [3, 29]: >128
- Minimum inhibitory concentration [4, 30]: 1
- Minimum inhibitory concentration [4, 31]: 2
- Minimum inhibitory concentration [4, 32]: 1
- Minimum inhibitory concentration [4, 33]: 1
- Minimum inhibitory concentration [4, 34]: 1
- Minimum inhibitory concentration [5, 35]: 0.5
- Minimum inhibitory concentration [5, 36]: 0.5
- Minimum inhibitory concentration [5, 37]: 0.5
- Minimum inhibitory concentration [5, 38]: 0.5
- Minimum inhibitory concentration [5, 39]: 0.5
- Minimum inhibitory concentration [6, 40]: 2
- Minimum inhibitory concentration [6, 41]: 2
- Minimum inhibitory concentration [6, 42]: 2
- Minimum inhibitory concentration [6, 43]: 2
- Minimum inhibitory concentration [6, 44]: 1
- Minimum inhibitory concentration [14]: 0.25
- Minimum inhibitory concentration [11, 45]: 0.5
- Minimum inhibitory concentration [11, 46]: 0.5
- Minimum inhibitory concentration [11, 47]: 1
- Minimum inhibitory concentration [11, 48]: 1
- Minimum inhibitory concentration [11, 49]: 1
- Minimum inhibitory concentration [12, 50]: 2
- Minimum inhibitory concentration [12, 51]: 0.25
- Minimum inhibitory concentration [12, 52]: 2
- Minimum inhibitory concentration [12, 53]: 2
- Minimum inhibitory concentration [12, 54]: 4
- Minimum inhibitory concentration [13, 55]: 1
- Minimum inhibitory concentration [13, 56]: 0.5
- Minimum inhibitory concentration [13, 57]: 0.5
- Minimum inhibitory concentration [13, 58]: 0.5
- Minimum inhibitory concentration [13, 59]: 0.25
